{
  "source": "patent US20220040136A1",
  "about": "“TREATMENT OF VULVOVAGINAL DISORDERS” (University of Rochester, priority 2018, published 2022)",
  "system": "C57BL/6J mice",
  "assay": "Mouse model of LPV, DHA cream (Example 4)",
  "type": "in vivo",
  "excerpt": "A total of 36 C57BL/6J mice were subjected to 6 weeks of allodynia induction using the protocol described above. Briefly, zymosan was used to induce sustained vulvar allodynia, measured by pain threshold testing. An electronic vonFrey system (MOUSEMET™, Topcat Metrology) was used to apply gradually increasing force to the vulva at the injection site, located at the midline posterior vulvar (between the vaginal opening and anus) (FIG. 7A). The hair was applied perpendicular to the vulvar surface with a gradually increasing force within a range of 0.100 g to 7.0 g (FIG. 7B). A positive response was defined as either (1) a reflexive, coordinated four extremity extension, (2) jump, or (3) immediate grooming of the vulva in response to vulvar stimulus, at which point the peak force was recorded.\nDuring allodynia induction, mice receive weekly injections of zymosan (10 mg/ml in 10 μl saline) for a maximum of 6 injections, until a >33% reduction in pain threshold is observed for 2 consecutive weeks of testing (FIG. 7C). Pain threshold testing was performed at the same time every week, immediately prior to zymosan injection; after the first 2 weeks of injections, a determination of threshold change was performed after pain testing to determine which mice would receive additional zymosan injections. […]",
  "data": [
    {"molecule": "CC/C=C\\C/C=C\\C/C=C\\C/C=C\\C/C=C\\C/C=C\\CCC(=O)O", "note": "[DHA, docosahexaenoic acid]", "values": [
      {"measurement": "mice recovered from allodynia", "setting": "DHA cream group (12 mice), after 6 weeks of treatment, recovery = 70% improvement over lowest pain threshold for 2 consecutive tests", "value": 9, "unit": "mice"},
      {"measurement": "first week at which mice began to recover", "setting": "DHA group, week = first week of a two-week period with 70% improvement, FIG. 13", "value": 1, "unit": "week"}
    ]}
  ]
}
